“Also recorded” adds a separate entry of the source. Where two headings read alike, the source gives them in different places.
Legend:
[1] = test system: patient; settings: human, in vivo
[2] = test system: rabbit thoracic aorta rings; test: tissue or blood; assay type: cell-based, New Zealand white rabbits; settings: for EC50: Oryctolagus cuniculus, read-out: EC50 for GTN relaxation
[3] = test system: organic nitrate ester reductase activity (mtALDH) in aorta rings; test: 1,2-GDN formation from GTN in aorta rings; assay type: cell-based, New Zealand white rabbits; settings: for activity at 1000 µM: Oryctolagus cuniculus, read-out: 1,2-GDN generation in the aorta rings, % of control activity
[4] = test system: cGMP accumulation in the aortic rings; test: cGMP accumulation in aortic rings; assay type: cell-based, New Zealand white rabbits; settings: for effect on increase in cGMP produced by GTN: 1 μM for 1 minute
[5] = biological target: T1, mtALDH isolated from mouse macrophage RAW 264.7 (Mus musculus, UniProt P47738); assay type: biochemical
T1 construct: Mouse macrophage RAW 264.7 cells were homogenized in a 30 mM phosphate buffer; endogenous in cells; host or cells: mouse macrophage RAW 264.7 cells (endogenous enzyme purified over DEAE-cellulose, Q-sepharose, Butyl-Sepharose and hydroxyapatite)
T1 sequence (P47738 20-519): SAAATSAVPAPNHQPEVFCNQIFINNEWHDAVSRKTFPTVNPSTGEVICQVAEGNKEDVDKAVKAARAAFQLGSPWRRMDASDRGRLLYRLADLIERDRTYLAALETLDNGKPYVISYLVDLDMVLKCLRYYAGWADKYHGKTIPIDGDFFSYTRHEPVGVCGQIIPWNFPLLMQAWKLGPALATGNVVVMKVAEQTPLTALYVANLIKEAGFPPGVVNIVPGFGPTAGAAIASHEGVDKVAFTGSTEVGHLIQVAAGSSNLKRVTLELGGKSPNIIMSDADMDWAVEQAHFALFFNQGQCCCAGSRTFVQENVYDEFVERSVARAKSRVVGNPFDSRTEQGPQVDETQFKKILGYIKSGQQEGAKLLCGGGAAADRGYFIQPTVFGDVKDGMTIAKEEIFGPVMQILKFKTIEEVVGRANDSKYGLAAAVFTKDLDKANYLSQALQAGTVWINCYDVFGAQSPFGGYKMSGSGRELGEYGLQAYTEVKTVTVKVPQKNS

[6] = test system: anesthetized rabbits (arterial blood pressure); test: Systemic hypotensive effects of GTN infusion in anesthetized rabbits; assay type: in vivo, New Zealand white rabbits; settings: for effect on SNP or adenosine mediated hypotension: inhibitor (~5 mM) infused intravenously 20 minutes prior; for effect on hypotensive effects of GTN: inhibitor (~5 mM) infused intravenously 20 minutes prior to GTN
[7] = biological target: T2, mouse mitochondria aldehyde dehydrogenase (mtALDH) purified from RAW264.7 cells (Mus musculus, UniProt P47738); test: GTN reductase activity of purified enzyme (1,2-GDN formation from [14C]GTN, TLC-LSS); assay type: biochemical; settings: for restoration of catalytic activity lost upon removal of DTT by dialysis: purified enzyme after dialysis
T2 construct: Mouse macrophage RAW 264.7 cells were homogenized in a 30 mM phosphate buffer; endogenous in cells; host or cells: mouse macrophage RAW 264.7 cells (endogenous enzyme purified over DEAE-cellulose, Q-sepharose, Butyl-Sepharose and hydroxyapatite)
T2 sequence (P47738 20-519): T1 sequence (P47738 20-519)

[8] = cited from earlier work
[9] = test system: mitochondria isolated from RAW 264.7 cells; test: 1,2-GDN generation from GTN by mitochondria isolated from RAW 264.7 cells; assay type: biochemical, mouse
Method: During protein purification, the assay mixtures (1 ml samples) contained 100 mM KPi, pH7.5, 0.5 mM EDTA, 1 mM NADH, 1 mM NADPH, 0.1 or 1 μM [^14C]GTN and protein sample from column fractions. After incubation at 37° C. for 10 to 30 minutes, the reaction was stopped (by adding dry ice) and GTN and its metabolites were extracted by 3×4 ml ether, the ether phase was combined and the solvent was evaporated by a stream of nitrogen. The final volume was controlled to less than 100 μl in ethanol for subsequent thin layer chromatography (TLC) separation and liquid scintillation spectrometry counting, i.e., (TLC-LSS), to determine amount of [^14C]1,2-GDN, to select samples with enzymatic activity (i.e., 1,2-GDN producing activity).
At the end of the procedure, the protein had been purified to near homogeneity (90 fold), with a 14.4% overall yield; its estimated molecular weight on SDS gel is about 53 kDa. N-terminal sequence of 30 amino acid residues was obtained by Edman degradation and matched exactly with mouse mitochondria aldehyde dehydrogenase.

[10] = biological target: T3, mtALDH (Oryctolagus cuniculus, UniProt G1SUY2); test: mtALDH activity in partially purified preparations of GTN tolerant aortic rings; assay type: biochemical, rabbit
T3 construct: from tissue; host or cells: thoracic aorta rings of New Zealand white rabbits, made GTN tolerant; partially purified preparation
T3 sequence (G1SUY2 1-521): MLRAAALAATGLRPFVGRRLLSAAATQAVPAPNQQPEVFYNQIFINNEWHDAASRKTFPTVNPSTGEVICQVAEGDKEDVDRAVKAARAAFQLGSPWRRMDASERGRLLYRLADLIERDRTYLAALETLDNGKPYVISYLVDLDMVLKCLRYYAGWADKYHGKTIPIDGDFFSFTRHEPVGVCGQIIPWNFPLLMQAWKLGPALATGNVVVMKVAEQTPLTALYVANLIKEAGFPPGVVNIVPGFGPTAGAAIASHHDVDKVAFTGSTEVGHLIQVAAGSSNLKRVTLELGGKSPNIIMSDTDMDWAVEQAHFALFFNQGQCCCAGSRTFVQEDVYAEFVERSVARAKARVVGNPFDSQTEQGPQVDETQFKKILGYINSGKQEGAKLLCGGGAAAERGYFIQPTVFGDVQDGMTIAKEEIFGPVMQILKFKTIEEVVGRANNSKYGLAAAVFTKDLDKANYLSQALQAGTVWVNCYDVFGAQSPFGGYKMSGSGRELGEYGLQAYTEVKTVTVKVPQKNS

[11] = 1 mM, 20 minutes before 1 μM GTN, 5 minutes 37° C.

## O=CC[N+](=O)[O-] [nitroacetaldehyde]
[1]; 0.1 mg/kg
  clinical outcome: relief of dyspnea

## acetaldehyde
[2]
  increase of GTN EC50 by inhibitor/competitive substrate: 4.4 fold
[3]; [11]
  1,2-GDN generation in the aorta rings, % of control activity: 52.5%
[1]; iv
  clinical outcome: normalizing blood pressure
[4]
  effect on increase in cGMP produced by GTN: completely blocked

## NCCCNCCSP(=O)(O)O [amifostine]
[1]
  clinical outcome: resolution rectal pain
  improvement in FEV 1: 12%

## O=C(O)CCP(CCC(=O)O)CCC(=O)O [TCEP, tris(2-carboxyethylphosphine)]
[5]; 1 mM GTN, excess mtALDH, 37° C. 10-30 minutes, DTT 1 mM, DHLA 0.5 and 0.1 mM, TCEP 1 mM
  activation of mtALDH to cause conversion of GTN to 1,2-GDN (FIG. 1): best activators
[1]
  clinical outcome: tolerance is reversed and angina resolves

## CCN(CC)C(=S)SSC(=S)N(CC)CC [antibuse]
[1]; po
  clinical outcome: without headache or symptomatic hypotension

## [Cl-].[O-][N+](=S)CCCC[P+](c1ccccc1)(c1ccccc1)c1ccccc1 [thionitrobutyltriphenylphosphonium chloride]
[1]; iv, 15 mg/kg
  clinical outcome: relief of symptoms and enhanced sensitivity to nitroglycerin

## Cc1cnc(C(=O)NCCc2ccc(S(=O)(=O)NC(=O)NC3CCCCC3)cc2)cn1 [glipizide]
[1]; iv
  clinical outcome: preservation of left ventricular function

## OC(O)C(Cl)(Cl)Cl [chloral hydrate]
[2]
  increase of GTN EC50 by inhibitor/competitive substrate: 8.9 fold
[3]; [11]
  activity at 1000 µM: 27.6%
[6]
  effect on SNP or adenosine mediated hypotension: little or no effect
  effect on hypotensive effects of GTN: significantly attenuated
[1]
  clinical outcome: resolution of symptoms; also recorded: without a decline in blood pressure; also recorded: without a fall in blood pressure; also recorded: improvement in wheezing and shortness of breath
[1]; iv
  clinical outcome: left ventricular function is largely preserved
[1]; po
  clinical outcome: blood pressure is restored
  systolic blood pressure after rise: 160 mm Hg
[4]
  effect on increase in cGMP produced by GTN: completely blocked

## N[C@@H](CCC(=O)N[C@@H](CSN=O)C(=O)NCC(=O)O)C(=O)O [S-nitrosoglutathione]
[1]
  clinical outcome: improvement of dyspnea and relief of angina; also recorded: relief of symptoms

## N[C@@H](CCC(=O)N[C@@H](CS)C(=O)NCC(=O)O)C(=O)O [glutathione]
[7]
  restoration of catalytic activity lost upon removal of DTT by dialysis: not

## O=NOC(CO)CO [2 glycerol mononitrite, 2-glycerol mononitrite]
[1]
  angiography the following year: no progression of atherosclerosis
  clinical outcome: relief of symptoms

## N#CN [cyanamide]
[2]
  increase of GTN EC50 by inhibitor/competitive substrate: 4.9 fold
[3]; [11]
  activity at 1000 µM: 56.9%
[6]
  effect on SNP or adenosine mediated hypotension: little or no effect
  effect on hypotensive effects of GTN: significantly attenuated
[4]; 100 μM-10 nM
  reduction of the cGMP increase produced by GTN: 46%

## O=[N+]([O-])O[C@@H]1CO[C@H]2[C@@H]1OC[C@@H]2O [Imdur]
[1]
  cross-tolerance with nitroglycerin: no cross-tolerance

## O=C(O)CCCC[C@@H](S)CCS (racemic) [DHLA, dihydrolipoic acid]
[5]
  activation of mtALDH to cause conversion of GTN to 1,2-GDN (FIG. 1): best activators
[1]; iv, 50 mg/kg
  clinical outcome: reverses tolerance and maintains mtALDH activity

## CCON=O [ethyl nitrite]
[1]; iv
  clinical outcome: Anginal symptoms resolve
  systolic blood pressure after fall: 120 mm Hg

## O=[N+]([O-])OCC(CO[N+](=O)[O-])O[N+](=O)[O-] [GTN, glyceryl trinitrate]
[7]; purified enzyme
  1,3-GDN formation from GTN: below detection limits
[7]; purified enzyme, GTN 0.1 to 10 μM
  rates of 1,2-GDN formation versus GTN concentration: linear
[7]; purified enzyme, n=3
  product ratio of 1,2-GDN/NOx (nitrite plus nitrate): 0.73±0.05
  product ratio of 1,2-GDN/nitrite: 0.83±0.14
[2]; 0.5 h
  EC50: 3.76 ± 2.05 µM
[2]
  EC50: 0.0226 ± 0.0092 µM
[8]
  solubility in glycerol: sparingly soluble
[3]; GTN-tolerant rings compared to control
  decrease of reductase activity as measured by 1,2-GDN formation: 60.4%
[1]
  blood pressure after drop: 100 mm Hg
[9]; mitochondria isolated from RAW 264.7 cells, 1 mM NADH/NADPH
  1,2-GDN generation from GTN: 0.29 nmol/h/mg
[9]; mitochondria-free supernatant
  1,2-GDN generation from GTN, residual activity: no residual activity
[4]; GTN tolerant rings
  cGMP accumulation from GTN treatment: abolished
[10]
  activity of mtALDH: inhibited

## nitric oxide [NO solutions]
[2]
  effect of preincubation with the mtALDH inhibitors on relaxation induced by this vasodilator: did not attenuate relaxation

## CCCCCO[N+](=O)[O-] [amyl nitrate]
[1]
  clinical outcome: improvement in dyspnea and symptoms of fatigue

## O=C(O)CCCC[C@@H]1CCSS1 (racemic) [lipoic acid]
[7]; purified enzyme
  dependence of 1,2-GDN formation by purified enzyme on added dithiol: could only catalyze 1,2-GDN formation when dithiol

## O[C@H](CS)[C@H](O)CS (racemic) [DTT, dithiothreitol]
[7]; purified enzyme
  dependence of 1,2-GDN formation by purified enzyme on added dithiol: could only catalyze 1,2-GDN formation when dithiol
[7]
  restoration of catalytic activity lost upon removal of DTT by dialysis: fully restored
[5]
  activation of mtALDH to cause conversion of GTN to 1,2-GDN (FIG. 1): best activators
